# In ChEMBL document CHEMBL5385881, “Design, synthesis, and discovery of Eudistomin Y derivatives as lysosome-targeted antiproliferation agents” (Eur J Med Chem, 2023):
# Activity calls are given as the source filed them. The calls are words filed in the database; no cut-off is given here.
# What was measured:
# MDA-MB-231 [1] = assay: Induction of cell cycle arrest in human MDA-MB-231 cells assessed as accumulation of cells at G0/G1 phase at 10 uM incubated for 24 hrs by PI staining based flow cytometric analysis (reference value: 62.73%); type: functional
# SGC-7901 [2] = assay: Induction of cell cycle arrest in human SGC-7901 cells assessed as accumulation of cells at G0/G1 phase at 10 uM incubated for 24 hrs by PI staining based flow cytometric analysis (reference value: 59.67%); type: functional
# [3] = Reduction in Cyclin B1 level in human MDA-MB-231 cells assessed as fold change at 15 uM measured after 72 hrs by Western blot analysis relative to control; type: functional
# MDA-MB-231 [4] = assay: Induction of autophagy in human MDA-MB-231 cells assessed as fold increase in Lamp1 level at 15 uM measured after 6 hrs by Western blot analysis relative to control; type: functional
# MDA-MB-231 [5] = assay: Induction of cell cycle arrest in human MDA-MB-231 cells assessed as accumulation of cells at G0/G1 phase at 50 uM incubated for 24 hrs by PI staining based flow cytometric analysis (reference value: 62.73%); type: functional
# MDA-MB-231 [6] = assay: Induction of cell cycle arrest in human MDA-MB-231 cells assessed as accumulation of cells at S phase at 10 uM incubated for 24 hrs by PI staining based flow cytometric analysis (reference value: 29.80%); type: functional
# SGC-7901 [7] = assay: Induction of cell cycle arrest in human SGC-7901 cells assessed as accumulation of cells at S phase at 50 uM incubated for 24 hrs by PI staining based flow cytometric analysis (reference value: 40.15%); type: functional
# SGC-7901 [8] = assay: Induction of cell cycle arrest in human SGC-7901 cells assessed as accumulation of cells at G2/M phase at 10 uM incubated for 24 hrs by PI staining based flow cytometric analysis (reference value: 0.18%); type: functional
# MDA-MB-231 [9] = assay: Induction of cell cycle arrest in human MDA-MB-231 cells assessed as accumulation of cells at G0/G1 phase at 5 uM incubated for 24 hrs by PI staining based flow cytometric analysis (reference value: 62.73%); type: functional
# HepG2 = assay: Cytotoxicity against human HepG2 cells assessed as cell inhibition measured after 72 hrs by MTT assay; type: functional, cell-based; conditions: HepG2, 72 h
# [10] = Reduction in Cyclin B1 level in human MDA-MB-231 cells assessed as fold change at 10 uM measured after 72 hrs by Western blot analysis relative to control; type: functional
# MDA-MB-231 [11] = assay: Induction of cell cycle arrest in human MDA-MB-231 cells assessed as accumulation of cells at G2/M phase at 50 uM incubated for 24 hrs by PI staining based flow cytometric analysis (reference value: 7.47%); type: functional
# [12] = Reduction in CDK1 level in human MDA-MB-231 cells assessed as fold change at 15 uM measured after 72 hrs by Western blot analysis relative to control; type: functional
# MDA-MB-231 [13] = assay: Induction of autophagy in human MDA-MB-231 cells assessed as increase in lysosomal membrane permeabilization by measuring red fluorescence in cytoplasm at 10 to 20 uM measured after 24 hrs by acridine orange (AO) staining assay; type: functional, cell-based; conditions: dose 10-20 µM
# SGC-7901 [14] = assay: Induction of cell cycle arrest in human SGC-7901 cells assessed as accumulation of cells at S phase at 10 uM incubated for 24 hrs by PI staining based flow cytometric analysis (reference value: 40.15%); type: functional
# MDA-MB-231 [15] = assay: Induction of cell cycle arrest in human MDA-MB-231 cells assessed as accumulation of cells at S phase at 50 uM incubated for 24 hrs by PI staining based flow cytometric analysis (reference value: 29.80%); type: functional
# [16] = Reduction in Cyclin B1 level in human MDA-MB-231 cells assessed as fold change in presence of 3-MA at 15 uM measured after 72 hrs by Western blot analysis relative to control; type: functional
# MDA-MB-231 [17] = assay: Cytotoxicity against human MDA-MB-231 cells assessed as cell inhibition measured after 72 hrs by MTT assay; type: functional, cell-based; conditions: MDA-MB-231, 72 h
# LS180 = assay: Cytotoxicity against human LS180 cells assessed as cell inhibition measured after 72 hrs by MTT assay; type: functional, cell-based; conditions: LS180, 72 h
# [18] = Drug uptake in human MDA-MB-231 cells assessed as accumulation by measuring lysosome-specific fluorescent signals in presence of excess eudistomin Y1 at 1 uM incubated for 1 hrs by confocal laser-scanning microscopic analysis; type: ADME, cell-based; conditions: mda-mb-231, 1 h
# [19] = Reduction in CDK1 level in human MDA-MB-231 cells assessed as fold change in presence of 3-MA at 15 uM measured after 72 hrs by Western blot analysis relative to control; type: functional
# MDA-MB-231 [20] = assay: Induction of autophagy in human MDA-MB-231 cells assessed as increase in acidic vesicle formation by measuring fluorescence signal from lyso-red Tracker at 10 to 20 uM measured after 24 hrs by Lyso-RedTracker staining based confocal laser-scanning microscopic analysis; type: functional, cell-based; conditions: dose 10-20 µM
# [21] = Reduction in Cyclin B1 level in human MDA-MB-231 cells assessed as fold change at 5 uM measured after 72 hrs by Western blot analysis relative to control; type: functional
# MDA-MB-231 [22] = assay: Induction of cell cycle arrest in human MDA-MB-231 cells assessed as accumulation of cells at G2/M phase at 10 uM incubated for 24 hrs by PI staining based flow cytometric analysis (reference value: 7.47%); type: functional
# [23] = Reduction in CDK1 level in human MDA-MB-231 cells assessed as fold change at 10 uM measured after 72 hrs by Western blot analysis relative to control; type: functional
# SGC-7901 [24] = assay: Induction of cell cycle arrest in human SGC-7901 cells assessed as accumulation of cells at G0/G1 phase at 5 uM incubated for 24 hrs by PI staining based flow cytometric analysis (reference value: 59.67%); type: functional
# A549 = assay: Cytotoxicity against human A549 cells assessed as cell inhibition measured after 72 hrs by MTT assay; type: functional, cell-based; conditions: A549, 72 h
# SGC-7901 [25] = assay: Induction of cell cycle arrest in human SGC-7901 cells assessed as accumulation of cells at G2/M phase at 50 uM incubated for 24 hrs by PI staining based flow cytometric analysis (reference value: 0.18%); type: functional
# [26] = Drug uptake in human MDA-MB-231 cells assessed as accumulation by measuring fluorescent signals at 1 uM incubated for 1 hrs by confocal laser-scanning microscopic analysis; type: ADME, cell-based; conditions: mda-mb-231, 1 h
# [27] = Drug uptake in human MDA-MB-231 cells assessed as accumulation by measuring lysosome-specific fluorescent signals at 2 uM incubated for 1 hrs by confocal laser-scanning microscopic analysis; type: ADME, cell-based; conditions: mda-mb-231, 1 h
# MDA-MB-231 [28] = assay: Induction of cell cycle arrest in human MDA-MB-231 cells assessed as accumulation of cells at G2/M phase at 20 uM incubated for 24 hrs by PI staining based flow cytometric analysis (reference value: 7.47%); type: functional
# MDA-MB-231 [29] = assay: Induction of cell cycle arrest in human MDA-MB-231 cells assessed as accumulation of cells at S phase at 5 uM incubated for 24 hrs by PI staining based flow cytometric analysis (reference value: 29.80%); type: functional
# [30] = Reduction in CDK1 level in human MDA-MB-231 cells assessed as fold change at 5 uM measured after 72 hrs by Western blot analysis relative to control; type: functional
compound,measurement,setting,value
COc1ccc(Cn2c3ccccc3c3ccnc(C(=O)c4ccccc4)c32)cc1,Activity,MDA-MB-231 [1],49.96%
same,Activity,SGC-7901 [2],8%
same,fold change (FC),[3],0.66
same,fold change (FC),MDA-MB-231 [4],1.39
same,Activity,MDA-MB-231 [5],12.51%
same,Activity,MDA-MB-231 [6],31.51%
same,Activity,SGC-7901 [7],45.27%
same,Activity,SGC-7901 [8],56.48%
same,Activity,MDA-MB-231 [9],64.23%
same,IC50,HepG2,9.6 µM
same,fold change (FC),[10],0.98
same,Activity,MDA-MB-231 [11],75.93%
same,fold change (FC),[12],0.5
same,Activity,MDA-MB-231 [13],Active
same,Activity,SGC-7901 [14],35.51%
same,Activity,MDA-MB-231 [15],11.55%
same,fold change (FC),[16],0.8
same,IC50,MDA-MB-231 [17],20.5 µM
same,IC50,LS180,2.9 µM
same,Drug uptake,[18],Not Active
same,fold change (FC),[19],0.78
same,Activity,MDA-MB-231 [20],Active
same,fold change (FC),[21],1.01
same,Activity,MDA-MB-231 [22],18.53%
same,fold change (FC),[23],0.52
same,Activity,SGC-7901 [24],41.36%
same,IC50,A549,14.8 µM
same,Activity,SGC-7901 [25],50.5%
same,Drug uptake,[26],Active
same,Drug uptake,[27],Active
same,Activity,MDA-MB-231 [28],48.37%
same,Activity,MDA-MB-231 [29],21.05%
same,fold change (FC),[30],0.78
